Source: the supplement of paper PMC10307832

What was measured:
Experiment in all cases: relative viability (nuclei count vs DMSO), 5 days (fraction); higher = more cells survive
Metformin + Navitoclax = compound: CN(C)C(=N)NC(=N)N [Metformin] + CC1(C)CCC(c2ccc(Cl)cc2)=C(CN2CCN(c3ccc(C(=O)NS(=O)(=O)c4ccc(N[C@H](CCN5CCOCC5)CSc5ccccc5)c(S(=O)(=O)C(F)(F)F)c4)cc3)CC2)C1 [Navitoclax] (partner 0.5 µM)
Outline: (§1)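 Lung cancer cell lines were seeded in 1536-well plates and dosed by pin tool the next day, with either a single drug or a fixed anchor-drug dose combined with five library-drug doses (not always all listed) spaced in √10 steps. Five days later, one step fixed the cells and stained their nuclei (final 0.05% Triton X-100, 1% formaldehyde, 1 ug/ml Hoechst), and nuclei were counted on 4× images. Relative viability is the nuclei count in treated wells divided by the count in vehicle wells, and each value is the median of duplicate plates.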

Apatinib + Linsitinib = compound: N#CC1(c2ccc(NC(=O)c3cccnc3NCc3ccncc3)cc2)CCCC1 [Apatinib] + C[C@]1(O)C[C@@H](c2nc(-c3ccc4ccc(-c5ccccc5)nc4c3)c3c(N)nccn32)C1 [Linsitinib] (partner 1 µM)
Outline: as §1

Metformin = compound: CN(C)C(=N)NC(=N)N [Metformin]
Outline: (§2)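 MetaXpress counted nuclei in 4× images of lung cancer cell lines that had been fixed, permeabilised and Hoechst-stained in one step. Before that, cells in 1536-well plates were kept overnight at 37 °C, pinned with five √10-spaced library-drug doses on vehicle-anchored plates, and cultured 5 days without medium change. Viability takes treated-well nuclei over vehicle-well nuclei and uses the median across plates. Plates were accepted only at control CV below 25% and at least one doubling.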

Apatinib = compound: N#CC1(c2ccc(NC(=O)c3cccnc3NCc3ccncc3)cc2)CCCC1 [Apatinib]
Outline: as §2

Cell Line: NCI-H460
- relative viability (Metformin + Navitoclax; first compound 31.62 µM): 1.22
- relative viability (Metformin + Navitoclax; first compound 100 µM): 1.16
- relative viability (Metformin + Navitoclax; first compound 316.23 µM): 1.02
- relative viability (Metformin + Navitoclax; first compound 1000 µM): 1.14
- relative viability (Apatinib + Linsitinib; first compound 0.08 µM): 0.841
- relative viability (Apatinib + Linsitinib; first compound 0.253 µM): 0.863
- relative viability (Apatinib + Linsitinib; first compound 0.8 µM): 0.661
- relative viability (Apatinib + Linsitinib; first compound 2.53 µM): 0.737
- relative viability (Apatinib + Linsitinib; first compound 8 µM): 0.64
- relative viability (Metformin; 31.62 µM): 1.01
- relative viability (Metformin; 100 µM): 1
- relative viability (Metformin; 316.23 µM): 0.976
- relative viability (Metformin; 1000 µM): 1.07
- relative viability (Apatinib; 0.08 µM): 0.976
- relative viability (Apatinib; 0.253 µM): 0.99
- relative viability (Apatinib; 0.8 µM): 0.963
- relative viability (Apatinib; 2.53 µM): 0.925
- relative viability (Apatinib; 8 µM): 0.93
